Key:
Interstitial collagenase [1] = molecular target: T1, Interstitial collagenase (Homo sapiens, UniProt P03956); test: Inhibition of recombinant human matrix metalloprotease-1
T1 sequence (P03956 whole entry): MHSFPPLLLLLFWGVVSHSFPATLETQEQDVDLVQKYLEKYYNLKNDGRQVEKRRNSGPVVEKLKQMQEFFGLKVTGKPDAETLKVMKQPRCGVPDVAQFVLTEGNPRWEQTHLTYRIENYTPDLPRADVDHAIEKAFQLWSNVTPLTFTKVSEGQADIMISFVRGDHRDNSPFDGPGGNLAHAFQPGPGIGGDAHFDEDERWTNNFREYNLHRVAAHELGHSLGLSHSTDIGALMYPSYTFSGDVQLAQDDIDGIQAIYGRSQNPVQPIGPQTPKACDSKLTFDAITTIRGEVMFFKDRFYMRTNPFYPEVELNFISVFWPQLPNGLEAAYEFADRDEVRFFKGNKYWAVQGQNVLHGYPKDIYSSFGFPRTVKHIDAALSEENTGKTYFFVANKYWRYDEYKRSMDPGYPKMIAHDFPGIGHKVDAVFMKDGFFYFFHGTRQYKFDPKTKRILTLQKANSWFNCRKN

[2] = molecular target: T2, Matrix metalloproteinase-9 (Homo sapiens, UniProt P14780); test: Inhibition of recombinant human Matrix metalloprotease-9
T2 sequence (P14780 whole entry, the tested form may be a part): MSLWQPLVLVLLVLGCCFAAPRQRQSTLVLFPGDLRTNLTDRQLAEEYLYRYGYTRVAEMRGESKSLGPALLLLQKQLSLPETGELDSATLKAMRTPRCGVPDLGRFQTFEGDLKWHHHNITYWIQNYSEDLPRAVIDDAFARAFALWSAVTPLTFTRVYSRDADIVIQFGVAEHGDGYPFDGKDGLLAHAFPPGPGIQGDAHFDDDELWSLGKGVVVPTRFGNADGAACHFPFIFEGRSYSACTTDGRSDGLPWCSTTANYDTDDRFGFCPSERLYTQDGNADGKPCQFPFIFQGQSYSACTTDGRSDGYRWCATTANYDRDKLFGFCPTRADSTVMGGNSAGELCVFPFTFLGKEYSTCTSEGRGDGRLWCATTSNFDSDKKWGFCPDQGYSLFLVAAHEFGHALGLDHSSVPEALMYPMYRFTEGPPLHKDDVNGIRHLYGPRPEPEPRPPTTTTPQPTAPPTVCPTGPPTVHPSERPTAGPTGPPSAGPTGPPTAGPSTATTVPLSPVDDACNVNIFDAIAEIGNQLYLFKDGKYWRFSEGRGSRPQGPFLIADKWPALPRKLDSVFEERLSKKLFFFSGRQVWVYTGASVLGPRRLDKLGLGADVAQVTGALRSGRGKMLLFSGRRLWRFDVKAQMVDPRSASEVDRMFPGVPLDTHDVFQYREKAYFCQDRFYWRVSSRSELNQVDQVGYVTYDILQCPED

[3] = molecular target: T3, Disintegrin and metalloproteinase domain-containing protein 17 (Homo sapiens, UniProt P78536); test: Inhibition of recombinant human tumor necrosis factor-alpha converting enzyme
T3 sequence (P78536 whole entry, the tested form may be a part): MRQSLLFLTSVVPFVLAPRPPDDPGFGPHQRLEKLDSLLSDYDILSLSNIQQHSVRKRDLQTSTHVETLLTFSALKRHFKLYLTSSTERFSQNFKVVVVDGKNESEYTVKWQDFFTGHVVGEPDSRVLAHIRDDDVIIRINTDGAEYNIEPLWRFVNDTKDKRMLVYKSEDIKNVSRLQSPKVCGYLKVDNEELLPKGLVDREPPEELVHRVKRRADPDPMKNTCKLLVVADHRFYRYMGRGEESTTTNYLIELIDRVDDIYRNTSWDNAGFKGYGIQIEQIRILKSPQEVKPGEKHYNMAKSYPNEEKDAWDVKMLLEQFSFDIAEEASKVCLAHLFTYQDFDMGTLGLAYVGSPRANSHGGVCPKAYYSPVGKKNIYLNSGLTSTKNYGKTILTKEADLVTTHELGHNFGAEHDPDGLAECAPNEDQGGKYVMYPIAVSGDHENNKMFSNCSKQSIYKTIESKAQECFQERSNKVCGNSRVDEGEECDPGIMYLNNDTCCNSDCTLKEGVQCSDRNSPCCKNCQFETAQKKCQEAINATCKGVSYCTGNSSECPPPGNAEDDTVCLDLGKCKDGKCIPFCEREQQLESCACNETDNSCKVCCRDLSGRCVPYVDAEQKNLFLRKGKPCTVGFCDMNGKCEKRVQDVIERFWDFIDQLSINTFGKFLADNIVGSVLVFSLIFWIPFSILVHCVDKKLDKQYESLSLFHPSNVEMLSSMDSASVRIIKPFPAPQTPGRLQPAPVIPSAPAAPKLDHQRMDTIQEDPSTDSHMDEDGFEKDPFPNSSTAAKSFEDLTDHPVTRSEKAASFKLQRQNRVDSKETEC

Stromelysin-1 [4] = molecular target: T4, Stromelysin-1 (Homo sapiens, UniProt P08254); test: Inhibition of recombinant human Matrix metalloprotease-3
Target sequence in this assay (P08254 whole entry): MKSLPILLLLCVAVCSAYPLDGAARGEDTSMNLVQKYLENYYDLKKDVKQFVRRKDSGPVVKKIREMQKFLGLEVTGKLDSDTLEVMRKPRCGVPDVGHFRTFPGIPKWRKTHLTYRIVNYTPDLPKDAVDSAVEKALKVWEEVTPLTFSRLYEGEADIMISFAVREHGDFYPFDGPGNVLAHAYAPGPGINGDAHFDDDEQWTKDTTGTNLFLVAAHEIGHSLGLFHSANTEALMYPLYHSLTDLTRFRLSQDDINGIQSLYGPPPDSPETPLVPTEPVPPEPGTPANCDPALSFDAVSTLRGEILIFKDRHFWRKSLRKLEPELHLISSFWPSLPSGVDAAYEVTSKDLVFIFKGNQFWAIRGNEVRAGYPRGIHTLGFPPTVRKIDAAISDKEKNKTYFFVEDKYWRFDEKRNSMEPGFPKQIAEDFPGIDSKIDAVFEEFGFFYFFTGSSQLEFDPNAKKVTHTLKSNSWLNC

Interstitial collagenase [5] = molecular target: T1, Interstitial collagenase; test: Inhibition of recombinant human Matrix metalloprotease-1
[6] = molecular target: T5, Interstitial collagenase (Homo sapiens) (UniProt P03956); test: Inhibition of recombinant human Matrix metalloprotease-1 at 1000 nM
T5 sequence (whole entry): T1 sequence (P03956 whole entry)

[7] = molecular target: T3, Disintegrin and metalloproteinase domain-containing protein 17; conditions: 1000 nM
Description: Inhibition of recombinant human TACE at 1000 nM

Stromelysin-1 [8] = molecular target: T4, Stromelysin-1; test: Inhibition of recombinant human Matrix metalloprotease-3 at 1000 nM
Target sequence in this assay (P08254 100-477 limits assumed): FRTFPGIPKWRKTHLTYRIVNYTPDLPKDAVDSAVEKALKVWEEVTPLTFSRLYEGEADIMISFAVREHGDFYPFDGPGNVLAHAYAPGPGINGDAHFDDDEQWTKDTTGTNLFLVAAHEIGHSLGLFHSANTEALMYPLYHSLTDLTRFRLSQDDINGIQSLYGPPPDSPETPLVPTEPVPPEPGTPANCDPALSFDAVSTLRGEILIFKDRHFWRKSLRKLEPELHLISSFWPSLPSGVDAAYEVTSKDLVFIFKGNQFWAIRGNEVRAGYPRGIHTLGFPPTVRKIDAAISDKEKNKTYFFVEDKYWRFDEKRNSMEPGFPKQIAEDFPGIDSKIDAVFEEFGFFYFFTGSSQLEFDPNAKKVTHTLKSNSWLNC

[9] = molecular target: T2, Matrix metalloproteinase-9; conditions: 1000 nM
Description: Inhibition of recombinant human Matrix metalloprotease-9 at 1000 nM

[10] = molecular target: T5, Interstitial collagenase (Homo sapiens); test: Inhibition of recombinant human matrix metalloprotease-1 at 1000 nM

CCOP(=O)(N[C@H](CCC(=O)NCCc1ccccc1)C(=O)NO)c1ccc(OC)cc1 (stereo partly specified)
Ki (Interstitial collagenase [1]): 40.4 nM | Ki [2]: 23.7 nM | Ki [3]: 27.6 nM | Ki (Stromelysin-1 [4]): 7.29 nM

CCOP(=O)(N[C@H](CC(C)C)C(=O)NO)c1ccc(OC)cc1 (stereo partly specified)
Ki [2]: 165 nM | Ki [3]: 5.06 nM | Ki (Interstitial collagenase [5]): 196 nM | Ki (Stromelysin-1 [4]): 69.8 nM

CCOP(=O)(c1ccc(OC)cc1)N1Cc2ccccc2C[C@@H]1C(=O)NO (single isomer, unassigned)
Ki [3]: 7.15 nM

CCOP(=O)(c1ccc(OC)cc1)N1Cc2ccccc2C[C@H]1C(=O)NO (single isomer, unassigned)
inhibition [6]: 26% | inhibition [7]: 41% | inhibition (Stromelysin-1 [8]): 9% | inhibition [9]: 18%

CCOP(=O)(N[C@@H](CCC(=O)NCCc1ccccc1)C(=O)NO)c1ccc(OC)cc1 (stereo partly specified)
Ki [3]: 10 nM | inhibition [10]: 27% | inhibition (Stromelysin-1 [8]): 47% | inhibition [9]: 24%

CCOP(=O)(N[C@@H](CC(C)C)C(=O)NO)c1ccc(OC)cc1 (stereo partly specified)
Ki [3]: 76.4 nM | inhibition [10]: 10% | inhibition (Stromelysin-1 [8]): 17% | inhibition [9]: 17%

— ChEMBL document CHEMBL1136540, “Discovery of selective phosphonamide-based inhibitors of tumor necrosis factor-alpha converting enzyme (TACE)” (Bioorg Med Chem Lett, 2003)
